Target: T1, human TLR8 (Homo sapiens, UniProt Q9NR97)
T1 construct: host or cells: HEK-Blue TLR8 293 (TLR8-HEK-293)
T1 sequence (Q9NR97 27-1041): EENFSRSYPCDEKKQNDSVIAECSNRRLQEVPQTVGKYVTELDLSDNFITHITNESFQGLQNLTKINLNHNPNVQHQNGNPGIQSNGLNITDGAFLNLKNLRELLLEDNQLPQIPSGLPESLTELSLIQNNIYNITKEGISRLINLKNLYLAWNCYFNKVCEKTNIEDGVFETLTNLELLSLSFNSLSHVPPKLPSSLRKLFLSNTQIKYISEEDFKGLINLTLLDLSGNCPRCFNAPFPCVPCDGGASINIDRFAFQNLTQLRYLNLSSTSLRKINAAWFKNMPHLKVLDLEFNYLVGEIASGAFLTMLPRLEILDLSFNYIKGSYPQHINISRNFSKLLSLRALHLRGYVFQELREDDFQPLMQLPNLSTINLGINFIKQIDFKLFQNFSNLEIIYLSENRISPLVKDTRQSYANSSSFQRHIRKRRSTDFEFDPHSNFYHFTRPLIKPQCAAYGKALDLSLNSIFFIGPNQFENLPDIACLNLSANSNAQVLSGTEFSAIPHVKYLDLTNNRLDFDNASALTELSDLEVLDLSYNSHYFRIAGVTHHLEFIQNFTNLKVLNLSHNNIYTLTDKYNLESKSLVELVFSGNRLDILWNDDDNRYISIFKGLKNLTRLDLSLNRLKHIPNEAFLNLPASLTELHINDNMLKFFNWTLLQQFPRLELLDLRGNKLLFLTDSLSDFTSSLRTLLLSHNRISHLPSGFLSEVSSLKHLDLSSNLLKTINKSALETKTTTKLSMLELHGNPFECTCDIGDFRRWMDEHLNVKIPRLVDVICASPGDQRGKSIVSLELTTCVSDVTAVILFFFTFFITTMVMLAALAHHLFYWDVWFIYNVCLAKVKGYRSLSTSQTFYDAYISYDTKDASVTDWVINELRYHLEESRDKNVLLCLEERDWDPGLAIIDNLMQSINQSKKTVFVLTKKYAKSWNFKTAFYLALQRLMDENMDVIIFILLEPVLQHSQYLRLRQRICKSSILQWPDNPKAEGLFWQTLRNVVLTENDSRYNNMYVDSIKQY
Experiment: NF-κB reporter assay (QUANTI-Blue) in TLR8-HEK-293 cells
Format: cell-based
Settings: Dotap formulations of miRNA
Protocol: To investigate whether miRNA-induced activation of TLRs also occurs in human cells, an NF-κB reporter assay was performed in HEK-293 cells. NF-κB, a transcription factor modulating the expression of several cytokine genes, is activated by several TLRs, including the only ssRNA-binding human TLRs, TLR7 and TLR8. Therefore, we treated HEK-293 cells expressing human TLR7 or TLR8 (hereafter, TLR7- and TLR8-HEK-293 cells, respectively) with Dotap alone or with Dotap formulations of miR-16, -21, -29a, or -147 and performed an NF-κB reporter assay. As positive controls Gardiquimod and ssRNA40 were used, specific agonists of TLR7 and TLR8, respectively. […] To confirm this conclusion, transfected were TLR8-HEK-293 cells with a plasmid encoding a dominant negative form of TLR8 (TLR8DN) and treated these cells with the miRNAs of interest. In TLR8DN cells, the activation of NF-κB by miR-21 and miR-29a was abolished (FIG. 3F). […] NF-κB activity was assessed by QUANTI-Blue Assay (Invivogen). […] Levels of SEAP can be easily determined with QUANTI-Blue, a detection medium that turns purple/blue in the presence of alkaline phosphatase. […] The plate was then incubated at 37° C. for 1-3 h and SEAP levels were determined by reading the plate with a spectrophotometer at 620-655 nm (SpectraMax, Molecular Devices).

miR-147: synthetic mature miRNA (SEQ ID NO: 3), sequence similar to RNA33, Dotap formulation (GUGUGUGGAAAUGCUUCUGC; DOTAP formulation, further chemistry not given here)
NF-κB activation: activated

Source: patent US9481885B2, “Methods and compositions related to miR-21 and miR-29a, exosome inhibition, and cancer metastasis” (Ohio State Innovation Foundation, priority 2011, dated 2016)
